Experimental findings from PMC5218480 (PLoS ONE, 2017) are described below.

The assay deals with MV-4-11 cells. In words: Gene expression microarray analysis (Affymetrix PrimeView) and GSEA. It counts as cell-based, human. More on the design: RFU PODN (11730768_x_at) / Fold change /veh PODN (11730768_x_at) / RFU LINC00158 (11744669_a_at) / Fold change /veh LINC00158 (11744669_a_at) / RFU DUSP10 (11751237_a_at) / Fold change /veh DUSP10 (11751237_a_at) / RFU ID3 (11757404_x_at) / Fold change /veh ID3 (11757404_x_at) / RFU PLEKHG5 (11737974_s_at) / Fold change /veh PLEKHG5 (11737974_s_at) / RFU LRRC4B (11730491_at) / Fold change /veh LRRC4B (11730491_at) / RFU GIMAP4 (11747438_a_at) / Fold change /veh GIMAP4 (11747438_a_at) / RFU KRT8 (11758183_x_at) / Fold change /veh KRT8 (11758183_x_at) / RFU CNN1 (11734310_a_at) / Fold change /veh CNN1 (11734310_a_at) / RFU VPS37D (11726825_at) / Fold change /veh VPS37D (11726825_at) / RFU C10orf10 (11716522_x_at) / Fold change /veh C10orf10 (11716522_x_at) / RFU KIR2DL2 /// KIR2DL4 /// KIR2DL5A /// KIR2DL5B /// KIR2DS1 /// KIR2DS2 /// KIR2DS3 /// KIR2DS4 /// KIR3DL3 /// KIR3DL3 /// KIR3DS1 (11738374_at) / Fold change /veh KIR2DL2 /// KIR2DL4 /// KIR2DL5A /// KIR2DL5B /// KIR2DS1 /// KIR2DS2 /// KIR2DS3 /// KIR2DS4 /// KIR3DL3 /// KIR3DL3 /// KIR3DS1 (11738374_at) / RFU C1QL1 (11718748_at) / Fold change /veh C1QL1 (11718748_at) / RFU TMPRSS4 (11747572_a_at) / Fold change /veh TMPRSS4 (11747572_a_at) / RFU HAMP (11756126_x_at) / Fold change /veh HAMP (11756126_x_at) / RFU RNFT2 (11725882_a_at) / Fold change /veh RNFT2 (11725882_a_at) / RFU NR4A2 (11747474_a_at) / Fold change /veh NR4A2 (11747474_a_at) / RFU ABCC12 (11746883_a_at) / Fold change /veh ABCC12 (11746883_a_at) / RFU TMEM136 (11760407_x_at) / Fold change /veh TMEM136 (11760407_x_at) / RFU CLDN22 /// WWC2 (11732394_at) / Fold change /veh CLDN22 /// WWC2 (11732394_at) / RFU HLA-DPB1 (11760878_x_at) / Fold change /veh HLA-DPB1 (11760878_x_at) / RFU SPINT1 (11716480_a_at) / Fold change /veh SPINT1 (11716480_a_at) / RFU GAP43 (11754022_s_at) / Fold change /veh GAP43 (11754022_s_at) / RFU A4GNT (11735810_at) / Fold change /veh A4GNT (11735810_at) / RFU PRB3 (11715151_x_at) / Fold change /veh PRB3 (11715151_x_at) / RFU TUBB4B (11761932_at) / Fold change /veh TUBB4B (11761932_at) / RFU CAPN14 (11732068_a_at) / Fold change /veh CAPN14 (11732068_a_at) / RFU TMCC2 (11721928_a_at) / Fold change /veh TMCC2 (11721928_a_at) / RFU IRGQ (11745062_a_at) / Fold change /veh IRGQ (11745062_a_at) / RFU FAM174B (11720279_a_at) / Fold change /veh FAM174B (11720279_a_at) / RFU TMPRSS4 (11748680_a_at) / Fold change /veh TMPRSS4 (11748680_a_at) / RFU FAM212B (11763350_a_at) / Fold change /veh FAM212B (11763350_a_at) / RFU PLEKHG5 (11743358_a_at) / Fold change /veh PLEKHG5 (11743358_a_at) / RFU ZSCAN30 (11745921_a_at) / Fold change /veh ZSCAN30 (11745921_a_at) / RFU CMKLR1 (11741424_a_at) / Fold change /veh CMKLR1 (11741424_a_at) / RFU LOC101060620 /// MAPK8IP1 (11723275_at) / Fold change /veh LOC101060620 /// MAPK8IP1 (11723275_at) / RFU SPTSSB (11747773_x_at) / Fold change /veh SPTSSB (11747773_x_at) / RFU PRSS12 (11739890_at) / Fold change /veh PRSS12 (11739890_at) / RFU BIN1 (11741810_x_at) / Fold change /veh BIN1 (11741810_x_at) / RFU WNT11 (11732464_a_at) / Fold change /veh WNT11 (11732464_a_at) / RFU C10orf10 (11716521_a_at) / Fold change /veh C10orf10 (11716521_a_at) / RFU C5orf56 (11738089_at) / Fold change /veh C5orf56 (11738089_at) / RFU CYB561 (11721691_x_at) / Fold change /veh CYB561 (11721691_x_at) / RFU ANKRD19P (11752326_a_at) / Fold change /veh ANKRD19P (11752326_a_at) / RFU OR2T12 /// OR2T33 /// OR2T8 (11738714_s_at) / Fold change /veh OR2T12 /// OR2T33 /// OR2T8 (11738714_s_at) / RFU VCAN (11748164_a_at) / Fold change /veh VCAN (11748164_a_at) / RFU JSRP1 (11732532_at) / Fold change /veh JSRP1 (11732532_at) / RFU KRTAP10-11 (11738290_x_at) / Fold change /veh KRTAP10-11 (11738290_x_at) / RFU MYO3A (11730013_a_at) / Fold change /veh MYO3A (11730013_a_at) / RFU EBF3 (11725865_a_at) / Fold change /veh EBF3 (11725865_a_at) / RFU CAMK2N1 (11719241_x_at) / Fold change /veh CAMK2N1 (11719241_x_at) / RFU C5orf56 (11738088_a_at) / Fold change /veh C5orf56 (11738088_a_at) / RFU OLFML3 (11715873_a_at) / Fold change /veh OLFML3 (11715873_a_at) / RFU LOC100653217 /// NTM (11731650_a_at) / Fold change /veh LOC100653217 /// NTM (11731650_a_at) / RFU MAPK11 (11762145_a_at) / Fold change /veh MAPK11 (11762145_a_at) / RFU FIZ1 (11724087_x_at) / Fold change /veh FIZ1 (11724087_x_at) / RFU OASL (11726364_x_at) / Fold change /veh OASL (11726364_x_at) / RFU SOX15 (11748057_x_at) / Fold change /veh SOX15 (11748057_x_at) / RFU CD79A (11719716_a_at) / Fold change /veh CD79A (11719716_a_at) / RFU HIST1H1D (11736915_at) / Fold change /veh HIST1H1D (11736915_at) / RFU CASKIN2 (11723855_a_at) / Fold change /veh CASKIN2 (11723855_a_at) / RFU LOC730098 (11760151_x_at) / Fold change /veh LOC730098 (11760151_x_at) / RFU OR4N2 (11742367_at) / Fold change /veh OR4N2 (11742367_at) / RFU PRRT2 (11749266_a_at) / Fold change /veh PRRT2 (11749266_a_at) / RFU SNX32 (11753110_a_at) / Fold change /veh SNX32 (11753110_a_at) / RFU CDHR5 (11726645_a_at) / Fold change /veh CDHR5 (11726645_a_at) / RFU RCAN1 (11760418_a_at) / Fold change /veh RCAN1 (11760418_a_at) / RFU FAM167A (11723789_a_at) / Fold change /veh FAM167A (11723789_a_at) / RFU FAM26E (11764081_at) / Fold change /veh FAM26E (11764081_at) / RFU ISYNA1 (11749810_s_at) / Fold change /veh ISYNA1 (11749810_s_at) / RFU ACY1 (11761880_at) / Fold change /veh ACY1 (11761880_at) / RFU 11764098_at / Fold change /veh 11764098_at / RFU SAMD14 (11745864_x_at) / Fold change /veh SAMD14 (11745864_x_at) / RFU NPB (11741838_a_at) / Fold change /veh NPB (11741838_a_at) / RFU TMPRSS6 (11731388_a_at) / Fold change /veh TMPRSS6 (11731388_a_at) / RFU KRTAP10-2 (11738614_at) / Fold change /veh KRTAP10-2 (11738614_at) / RFU ARHGAP8 /// PRR5-ARHGAP8 (11727945_x_at) / Fold change /veh ARHGAP8 /// PRR5-ARHGAP8 (11727945_x_at) / RFU KRTAP5-7 /// NADSYN1 (11734609_at) / Fold change /veh KRTAP5-7 /// NADSYN1 (11734609_at) / RFU RASL12 (11751679_a_at) / Fold change /veh RASL12 (11751679_a_at) / RFU CDKN2B (11736163_a_at) / Fold change /veh CDKN2B (11736163_a_at) / RFU PRF1 (11729649_at) / Fold change /veh PRF1 (11729649_at) / RFU, ZNF638 /// ZNF638-IT1 / Fold change vs veh, ZNF638 /// ZNF638-IT1 / RFU, PANK3 / Fold change vs veh, PANK3 / RFU, SH3YL1 / Fold change vs veh, SH3YL1 / RFU, ZEB2 / Fold change vs veh, ZEB2 / RFU, NRIP1 / Fold change vs veh, NRIP1 / RFU, PTTG1IP / Fold change vs veh, PTTG1IP / RFU, CAPN2 / Fold change vs veh, CAPN2 / RFU, MED14 / Fold change vs veh, MED14 / RFU, SNORA58 / Fold change vs veh, SNORA58 / RFU, C1orf63 / Fold change vs veh, C1orf63 / RFU, LRRFIP1 / Fold change vs veh, LRRFIP1 / RFU, NDUFAF7 / Fold change vs veh, NDUFAF7 / RFU, SLC12A2 / Fold change vs veh, SLC12A2 / RFU, IBTK / Fold change vs veh, IBTK / RFU, ESF1 / Fold change vs veh, ESF1 / Fold change vs veh, TMEM50B / RFU, TAOK1 / Fold change vs veh, TAOK1 / RFU, ACBD3 / Fold change vs veh, ACBD3 / RFU, TMA16 / Fold change vs veh, TMA16 / RFU, RWDD3 / Fold change vs veh, RWDD3 / RFU, BCAT1 / Fold change vs veh, BCAT1 / RFU, EDEM3 / Fold change vs veh, EDEM3 / RFU, TMEM33 / Fold change vs veh, TMEM33 / RFU, WDR75 / Fold change vs veh, WDR75 / RFU, AHCTF1 / Fold change vs veh, AHCTF1 / RFU, TFRC / Fold change vs veh, TFRC / RFU, ZDHHC17 / Fold change vs veh, ZDHHC17 / RFU, NOM1 / Fold change vs veh, NOM1 / RFU, ARL8B / Fold change vs veh, ARL8B / RFU, ZBTB11 / Fold change vs veh, ZBTB11 / RFU, TAMM41 / Fold change vs veh, TAMM41 / RFU, KIAA1704 /// LOC100996395 / Fold change vs veh, KIAA1704 /// LOC100996395 / RFU, ING1 / Fold change vs veh, ING1 / RFU, TRMT61B / Fold change vs veh, TRMT61B / RFU, FUBP3 / Fold change vs veh, FUBP3 / RFU, TP53 / Fold change vs veh, TP53 / RFU, TNKS2 / Fold change vs veh, TNKS2 / RFU, ZFP14 / Fold change vs veh, ZFP14 / RFU, ACTR2 / Fold change vs veh, ACTR2 / RFU, PPP3R1 / Fold change vs veh, PPP3R1 / RFU, PIK3R1 / Fold change vs veh, PIK3R1 / RFU, HNRNPA1 / Fold change vs veh, HNRNPA1 / RFU, RNF170 / Fold change vs veh, RNF170 / RFU, ZNF28 / Fold change vs veh, ZNF28 / RFU, RNGTT / Fold change vs veh, RNGTT / RFU, OGT / Fold change vs veh, OGT / RFU, BRD1 / Fold change vs veh, BRD1 / RFU, MARS / Fold change vs veh, MARS / RFU, ZNF655 / Fold change vs veh, ZNF655 / RFU, FAHD1 / Fold change vs veh, FAHD1 / RFU, BDP1 / Fold change vs veh, BDP1 / RFU, LRRCC1 / Fold change vs veh, LRRCC1 / RFU, ARID1A / Fold change vs veh, ARID1A / RFU, ZNF146 / Fold change vs veh, ZNF146 / RFU, ZNF330 / Fold change vs veh, ZNF330 / RFU, GPN3 / Fold change vs veh, GPN3 / RFU, C9orf123 / Fold change vs veh, C9orf123 / RFU, N4BP2L2 / Fold change vs veh, N4BP2L2 / RFU, ARFIP1 / Fold change vs veh, ARFIP1 / RFU, FAM179B / Fold change vs veh, FAM179B / RFU, BCL10 / Fold change vs veh, BCL10 / RFU, UHRF1BP1L / Fold change vs veh, UHRF1BP1L / RFU, BET1 / Fold change vs veh, BET1 / RFU, CNOT2 / Fold change vs veh, CNOT2 / RFU, ZNF268 / Fold change vs veh, ZNF268 / Fold change vs veh, ZNF507 / RFU, DGCR2 / Fold change vs veh, DGCR2 / RFU, WDSUB1 / Fold change vs veh, WDSUB1 / Fold change vs veh, HSP90B1 /// MIR3652 / RFU, ADSS / Fold change vs veh, ADSS / RFU, GK / Fold change vs veh, GK / RFU, ZNF148 / Fold change vs veh, ZNF148 / RFU, TAF9 / Fold change vs veh, TAF9 / RFU, SLC1A5 / Fold change vs veh, SLC1A5 / RFU, SLMO2 / Fold change vs veh, SLMO2 / RFU, ABCC4 / Fold change vs veh, ABCC4 / RFU, LOC101060439 /// RAP1B / Fold change vs veh, LOC101060439 /// RAP1B / RFU, RFX7 / Fold change vs veh, RFX7 / RFU, GTPBP10 / Fold change vs veh, GTPBP10 / RFU, CNEP1R1 / Fold change vs veh, CNEP1R1 / RFU, BIVM-ERCC5 /// ERCC5 / Fold change vs veh, BIVM-ERCC5 /// ERCC5 / RFU, ILF3 / Fold change vs veh, ILF3 / RFU 11762660_at / Fold change /veh 11762660_at / RFU VCAN (11757783_s_at) / Fold change /veh VCAN (11757783_s_at) / RFU DDX43 (11728927_at) / Fold change /veh DDX43 (11728927_at) / RFU KRT8 (11758188_x_at) / Fold change /veh KRT8 (11758188_x_at) / RFU NKD1 (11759106_at) / Fold change /veh NKD1 (11759106_at) / RFU SRD5A1 (11742802_a_at) / Fold change /veh SRD5A1 (11742802_a_at) / RFU TPSAB1 /// TPSB2 (11721975_s_at) / Fold change /veh TPSAB1 /// TPSB2 (11721975_s_at) / RFU GSTM3 (11746129_a_at) / Fold change /veh GSTM3 (11746129_a_at) / RFU IL23R (11737362_x_at) / Fold change /veh IL23R (11737362_x_at) / RFU TMEM51 (11727254_a_at) / Fold change /veh TMEM51 (11727254_a_at) / RFU PIWIL2 (11732686_x_at) / Fold change /veh PIWIL2 (11732686_x_at) / RFU ORM1 (11744905_x_at) / Fold change /veh ORM1 (11744905_x_at) / RFU CCDC152 (11743942_at) / Fold change /veh CCDC152 (11743942_at) / RFU ECM1 (11717891_a_at) / Fold change /veh ECM1 (11717891_a_at) / RFU IL23R (11748794_a_at) / Fold change /veh IL23R (11748794_a_at) / RFU TNFAIP8L3 (11732012_x_at) / Fold change /veh TNFAIP8L3 (11732012_x_at) / RFU MBOAT4 (11741988_at) / Fold change /veh MBOAT4 (11741988_at) / RFU 11764193_at / Fold change /veh 11764193_at / RFU TMEM53 (11763286_at) / Fold change /veh TMEM53 (11763286_at) / RFU MAGEB2 (11727129_at) / Fold change /veh MAGEB2 (11727129_at) / RFU TMEM200A (11744735_a_at) / Fold change /veh TMEM200A (11744735_a_at) / RFU CCDC152 (11751479_a_at) / Fold change /veh CCDC152 (11751479_a_at) / RFU FAM211A (11726209_a_at) / Fold change /veh FAM211A (11726209_a_at) / RFU RGS16 (11746705_a_at) / Fold change /veh RGS16 (11746705_a_at) / RFU VCAN (11755009_s_at) / Fold change /veh VCAN (11755009_s_at) / RFU RHOB (11743442_s_at) / Fold change /veh RHOB (11743442_s_at) / RFU RGS16 (11720943_a_at) / Fold change /veh RGS16 (11720943_a_at) / RFU RGS16 (11720944_at) / Fold change /veh RGS16 (11720944_at) / RFU, VPS4B / Fold change vs veh, VPS4B / RFU, CREB1 / Fold change vs veh, CREB1 / RFU, DNAJC13 / Fold change vs veh, DNAJC13 / RFU, GNAQ / Fold change vs veh, GNAQ / RFU, CDK5R1 / Fold change vs veh, CDK5R1 / RFU, ZRANB3 / Fold change vs veh, ZRANB3 / RFU, CUL4A / Fold change vs veh, CUL4A / RFU, CCNY / Fold change vs veh, CCNY / RFU, UFL1 / Fold change vs veh, UFL1 / RFU, COG3 / Fold change vs veh, COG3 / RFU, DIAPH2 / Fold change vs veh, DIAPH2 / RFU, SKA2 / Fold change vs veh, SKA2 / RFU, AFF3 / Fold change vs veh, AFF3 / RFU, LMF1 / Fold change vs veh, LMF1 / RFU, IPO11 / Fold change vs veh, IPO11 / RFU, DFFB / Fold change vs veh, DFFB / RFU, FOXP1 / Fold change vs veh, FOXP1 / RFU, CARD8 / Fold change vs veh, CARD8 / RFU, STRN3 / Fold change vs veh, STRN3 / RFU, ADK / Fold change vs veh, ADK / RFU, RASSF2 / Fold change vs veh, RASSF2 / RFU, WIPF1 / Fold change vs veh, WIPF1 / RFU, LARP1B / Fold change vs veh, LARP1B / RFU, RASA1 / Fold change vs veh, RASA1 / RFU, RB1 / Fold change vs veh, RB1 / RFU, PPFIA1 / Fold change vs veh, PPFIA1 / RFU, MAT2A / Fold change vs veh, MAT2A / RFU, CCT5 / Fold change vs veh, CCT5 / RFU, WDR92 / Fold change vs veh, WDR92 / RFU, CUX1 / Fold change vs veh, CUX1 / RFU, TTC7A / Fold change vs veh, TTC7A / RFU, TMEM135 / Fold change vs veh, TMEM135 / RFU, DEPTOR / Fold change vs veh, DEPTOR / RFU, CPM / Fold change vs veh, CPM / RFU, DNAJB6 / Fold change vs veh, DNAJB6 / RFU, CACNA2D3 / Fold change vs veh, CACNA2D3 / RFU, DTX4 / Fold change vs veh, DTX4 / RFU, TFCP2 / Fold change vs veh, TFCP2 / RFU, GMCL1 /// GMCL1P1 / Fold change vs veh, GMCL1 /// GMCL1P1 / RFU, AEBP2 / Fold change vs veh, AEBP2 / RFU, SNHG1 /// SNORD22 /// SNORD25 /// SNORD26 /// SNORD27 /// SNORD28 /// SNORD29 /// SNORD31 / Fold change vs veh, SNHG1 /// SNORD22 /// SNORD25 /// SNORD26 /// SNORD27 /// SNORD28 /// SNORD29 /// SNORD31 / Fold change (Aza/veh), C12orf56 (ProbeSet 11735607_a_at) / Fold change (ACY-1035/veh), C12orf56 (ProbeSet 11735607_a_at) / Fold change (Aza/veh), FGFR1OP (ProbeSet 11751329_s_at) / Fold change (ACY-1035/veh), FGFR1OP (ProbeSet 11751329_s_at) / Fold change (Aza/veh), VPS36 (ProbeSet 11739960_a_at) / Fold change (ACY-1035/veh), VPS36 (ProbeSet 11739960_a_at) / RFU SYPL1 (11715823_x_at) / Fold change /veh SYPL1 (11715823_x_at) / RFU IGFBP7 (11715501_s_at) / Fold change /veh IGFBP7 (11715501_s_at) / RFU REEP3 (11722064_at) / Fold change /veh REEP3 (11722064_at) / RFU IGLL1 (11728026_x_at) / Fold change /veh IGLL1 (11728026_x_at): dose or concentration left out as unconfirmed. As to conditions: ProbeSet 11716865_a_at; LIST B.

On to `Nc1ccc(-c2cccs2)cc1NC(=O)c1ccc2c(c1)cc(C1CC1)n2CCN1CCOCC1` [ACY-1035], for which the “RFU, SLC1A5” value is recorded as 252.35 RFU.
